Experiment [1] relates to Listeria monocytogenes. In words: microbe, parasite or virus in culture. Particulars: 18 h, read-out: minimum inhibitory concentration (MIC).
Procedure: (§1) Specifically, Listeria monocytogenes, a gram-positive bacterium, was cultured in a brain-heart infusion (BHI) medium at 7° C. and 200 rpm under shaking conditions overnight, and then the degree of bacterial growth was determined by measuring optical density at 600 nm using a Biochrom Libra S22 spectrophotometer.
Experiment [2] concerns Listeria monocytogenes. Particulars: 18 hours.
For experiment [3], the system named is Listeria monocytogenes. Particulars: for colony formation of bacterial ghosts plated on BHI agar media: MIC. As for the experimental part:
Specifically, a BHI liquid medium was inoculated with Listeria, and incubated for 72 hours. After incubation, centrifugation was performed at 10,000 g for 10 minutes to obtain the cultured Listeria. […] Listeria was obtained at 15, 30, 45, 60 and 90 minutes after the beginning of culture and the lysis rate was measured.

Experiment [4] relates to Listeria monocytogenes. Particulars: BHI liquid medium, 10^6 CFU/ml, 37° C., 18 hours, optical density at 600 nm.
Procedure: as §1
Setting [5] is: treated with 6.25 mg/ml (MIC), plated without dilution, 37° C.

In brackets after ≈: the same amount, converted by molar mass. Read-outs that look alike come from different tables or passages of the source.

For `Cl` [hydrochloric acid], the MIC in the experiment with Listeria monocytogenes [1] was 6250 µg/mL (≈ 171 mM). Also, the “colony formation on BHI agar medium” value was “tens of colonies were also formed” in the experiment with Listeria monocytogenes [2] (treated with 3.125 mg/ml, diluted to a dilution factor of 1/10, 37° C.) and “no viable colony was formed” with Listeria monocytogenes [2] (setting [5]). Besides, in the experiment with Listeria monocytogenes [3] (ghosts prepared from 15 minutes after treatment), the “colony formation of bacterial ghosts plated on BHI agar media” value was “colonies were not formed”. Besides, the “lysis rate of gram-positive bacteria” value in the experiment on Listeria monocytogenes [3] (at about 15 minutes after the MIC has been applied) is listed as 100%.

On to `[Na+].[OH-]` [sodium hydroxide], for which the “colony formation on BHI agar medium” value with Listeria monocytogenes [2] (treated with 3.125 mg/ml, plated without dilution, 37° C.) is given as “thousands of colonies were formed”; in the experiment on Listeria monocytogenes [2] (setting [5]), “no viable colony was formed”. In the experiment with Listeria monocytogenes [4], the “minimum inhibitory concentration (MIC)” value is 6250 µg/mL. Also, the “time to formation of bacterial ghosts after treatment” value in the experiment on Listeria monocytogenes [3] (MIC 6.25 mg/ml, 37° C., 10^6 CFU/ml Listeria in PBS) is “about 10 minutes”. Further, in the experiment with Listeria monocytogenes [3] (ghosts prepared from 10 minutes after treatment), the “colony formation of bacterial ghosts plated on BHI agar media” value is listed as “colonies were not formed”.

The values are drawn from patent US11066638B2 (priority 2016, dated 2021).
